The subject of assay [1] is B. gingivalis N-CBz-Gly-Gly-Arg peptidase. The assay is described as follows: Effect of inhibitors and enhancers on B. gingivalis peptidase activity. Type of assay: biochemical, Bacteroides gingivalis. The following applies: for Inhibition of B. gingivalis enzyme activity by metals: high concentrations.
In assay [2] the test system is Veillonella sp. It is filed as biochemical. As for the experimental part:
(§1) The enzyme activity was measured by the chromogenic properties of N-CBz-glycyl-glycyl-L-arginine-β-naphthylamide which upon hydrolysis gives a visible color. The aminopeptidase activities listed in the table reflect the nanomoles of β-naphthylamine liberated after 60 minutes under the conditions described below.
(§2) After mixing, the solution is incubated for 1 hour at 37° C. and then 0.4 ml of a solution of stabilized diazonium salt, Fast Garnet GBC (0.5 mg/ml) in a 1M acetic acid buffer (pH 4.2), containing 10% Tween 20 was added to the mixture. After standing for 15 minutes at room temperature, the color reaction can be read manually by comparison with standard solutions or the absorbancy can be determined using a spectrophotometer at 525 nm. The reaction mixture without enzyme solution is used as a control.
(§3) The enzyme activity and the aminopeptidase activities were determined in the manner described above in regard to Table I.

Assay [3] deals with S. mutans. It is filed as biochemical. As for the experimental part:
as §1, §2, §3

For assay [4], the system named is Actinomyces israeli. It is filed as biochemical. As for the experimental part:
as §1, §2, §3

Assay [5] concerns Fusobacterium nucleatum. Type of assay: biochemical. The protocol:
as §1, §2, §3

Assay [6] relates to A. viscosus. Type of assay: biochemical. The protocol:
as §1, §2, §3

The subject of assay [7] is "Anaerobic vibrio". Type of assay: biochemical. The protocol:
as §1, §2, §3

Assay [8] concerns A. seminis. It is filed as biochemical. As for the experimental part: as §1, §2, §3
The subject of assay [9] is Eikenella corrodens. Type of assay: biochemical. The protocol: as §1, §2, §3
For assay [10], the system named is V. parvula. It is filed as biochemical. The protocol: as §1, §2, §3
The subject of assay [11] is Campylobacter sputorum. It is filed as biochemical. As for the experimental part:
as §1, §2, §3

Assay [12] has as its system L. fermentum. The assay is described as follows: Aminopeptidase activity on β-naphthylamide substrates. Type of assay: biochemical. As for the experimental part: as §1, §2, §3
Assay [13] relates to Haemophilus aphrophilus. Described as above. It is filed as biochemical. As for the experimental part:
as §1, §2, §3

In assay [14] the test system is Veillonella alcalesens. Described as above. Type of assay: biochemical. The protocol: as §1, §2, §3
For assay [15], the system named is A. equuli. The description is as above. It is filed as biochemical. The protocol: as §1, §2, §3
In assay [16] the test system is F. periodonticum. The assay is described as above. Type of assay: biochemical. As for the experimental part:
as §1, §2, §3

In assay [17] the test system is A. suis. Described as above. It is filed as biochemical. As for the experimental part: as §1, §2, §3
Assay [18] deals with Lactobacillus casei. Described as above. Type of assay: biochemical. As for the experimental part: as §1, §2, §3
In assay [19] the test system is S. salivarius. The assay is described as above. It is filed as biochemical. As for the experimental part:
as §1, §2, §3

Assay [20] deals with C. ochracea. Type of assay: biochemical. The protocol: as §1, §2
For assay [21], the system named is Capnocytophaga gingivalis. It is filed as biochemical. The protocol:
as §1, §2

The subject of assay [22] is Capnocytophaga sp. Type of assay: biochemical. As for the experimental part:
as §1, §2

Assay [23] has as its system B. denticola. In words: Aminopeptidase activity on β-naphthylamide substrates. It is filed as biochemical. The protocol:
as §1, §2

The subject of assay [24] is B. intermedius. The assay is described as above. It is filed as biochemical. As for the experimental part:
as §1, §2

The test system of assay [25] is C. sputigena. The description is as above. It is filed as biochemical. The protocol: as §1, §2
Assay [26] deals with B. corporis. The assay is described as above. It is filed as biochemical. The protocol: as §1, §2
Assay [27] has as its system B. melaninogenicus. Described as above. Type of assay: biochemical. The protocol: as §1, §2
In assay [28] the test system is B. levii. It is filed as biochemical. As for the experimental part:
as §1, §2

Assay [29] deals with Bacteroides gingivalis. Type of assay: biochemical. As for the experimental part:
as §1, §2

Assay [30] deals with S. sanguis. Type of assay: biochemical. As for the experimental part: as §1, §2, §3
Assay [31] concerns B. mel. ss. intermedius. Type of assay: biochemical. The protocol: as §1, §2
The mark [32] stands for this setting: strain D31A-24, β-naphthylamine liberated after 60 minutes, 37° C.

Several values for one entry are separate records, joined by “and”; a condition that tells them apart may be missing. Identical values can stand only once. Like-named read-outs stand apart in the source and are kept apart here. Numbered stars: 1 amine (or outer) side, 2 acyl side, 3 side chain; on linkers, the order of the positions; unused ones are H or OH. Peptide text beside a SMILES is read from it. CO = O=C([*:1])[*:2]

Take `[Cu]` [copper]: in assay [1], the “Sensitivity of B. gingivalis enzyme activity to heavy metal ions” value is “sensitive” and the “Inhibition of B. gingivalis enzyme activity by metals” value (shortened to “Inhibition … by metals”) is recorded as “inhibited”.
Consider `CC(=O)N[C@@H](CC(C)C)C(=O)N[C@@H](CC(C)C)C(=O)N[C@H](C=O)CCCNC(=N)N` [leupeptin], for which the “Inhibition of B. gingivalis N-CBz-glycyl-glycyl-arginylpeptidase enzyme activity” value in assay [1] was “inhibited”.
As to `O=C(O)c1cc[c]([Hg][Cl])cc1` [p-chloromercuribenzoic acid], the “Inhibition of B. gingivalis N-CBz-glycyl-glycyl-arginylpeptidase enzyme activity” value in assay [1] is given as “inhibited”.
Take `[Zn]` [zinc]: in assay [1], the “Inhibition … by metals” value is on record as “inhibited”.
Consider `CC(C)[C@H](NC(=O)[C@H](CCCNC(=N)N)NC(=O)N[C@@H](Cc1ccccc1)C(=O)O)C(=O)N[C@H](C=O)CCCNC(=N)N` [antipain] ({Phe-CO}-Arg-Val-Arg-aldehyde), for which the “Inhibition of B. gingivalis N-CBz-glycyl-glycyl-arginylpeptidase enzyme activity” value in assay [1] is “inhibited”.
Take `O=S(=O)(F)Cc1ccccc1` [phenylmethylsulfonylfluoride]: in assay [1], the “Inhibition of B. gingivalis N-CBz-glycyl-glycyl-arginylpeptidase enzyme activity” value is given as “inhibited”.
`N=C(N)NCCC[C@H](NC(=O)[C@@H](N)CCCNC(=N)N)C(=O)O` [Arg-Arg, Arginyl-arginine] (H-Arg-Arg-OH): the Aminopeptidase activity in [2] worked out at 0; in assay [3], 1; in [4], 0; in [5] it was 1; in assay [5] (setting [32]), 2 nmol; in assay [6] it was 0. The Aminopeptidase activity in assay [7] was found to be 0; in [8], 0; in assay [9], 0; in assay [10] it was 0; in [11], 1; in [12] (strain ATCC 11581, β-naphthylamine liberated after 60 minutes, 37° C.), 0 nmol. Also, the Aminopeptidase activity is 1 nmol in [13] (strain ATCC 13252, β-naphthylamine liberated after 60 minutes, 37° C.); 1 nmol in assay [13] (strain ATCC 19415, β-naphthylamine liberated after 60 minutes, 37° C.); 0 nmol in [13] (strain NCTC 5908, β-naphthylamine liberated after 60 minutes, 37° C.); 0 nmol in assay [14] (strain ATCC 11748, β-naphthylamine liberated after 60 minutes, 37° C.); 0 nmol in assay [15] (strain ATCC 19392, β-naphthylamine liberated after 60 minutes, 37° C.); 1 nmol in [16] (strain EK1-15, β-naphthylamine liberated after 60 minutes, 37° C.). The Aminopeptidase activity in assay [17] (strain ATCC 15557, β-naphthylamine liberated after 60 minutes, 37° C.) was 0 nmol; in assay [18] (strain ATCC 7469, β-naphthylamine liberated after 60 minutes, 37° C.), 1 nmol; in assay [18] (strain ATCC 11578, β-naphthylamine liberated after 60 minutes, 37° C.), 1 nmol; in assay [18] (strain ATCC 11582, β-naphthylamine liberated after 60 minutes, 37° C.) it was 0 nmol; in assay [19] (strain ATCC 9759, β-naphthylamine liberated after 60 minutes, 37° C.), 24 nmol; in assay [19] (strain ATCC 25975, β-naphthylamine liberated after 60 minutes, 37° C.), 15 nmol. For the same molecule, the Aminopeptidase activity was found to be 71 in [20]; 65 in assay [21]; 0 in [22]; 16 nmol in assay [23] (strain ATCC 33185, β-naphthylamine liberated after 60 minutes, 37° C.); 15 nmol in [24] (strain ATCC 25611, β-naphthylamine liberated after 60 minutes, 37° C.); 18 nmol in [25] (strain ATCC 33123, β-naphthylamine liberated after 60 minutes, 37° C.). Also, the Aminopeptidase activity in [26] (strain ATCC 33547, β-naphthylamine liberated after 60 minutes, 37° C.) turned out to be 4 nmol; in [27] (strain ATCC 25845, β-naphthylamine liberated after 60 minutes, 37° C.), 24 nmol.
For `C[C@H](NC(=O)[C@@H](N)CCCCN)C(=O)O` [Lys-Ala, Lysyl-alanine] (H-Lys-Ala-OH), the Aminopeptidase activity in assay [2] stood at 0; in [3], 2; in assay [4] it was 0; in assay [5] (setting [32]) it was 0 nmol; in assay [6], 0; in assay [7], 0. For the same molecule, the Aminopeptidase activity turned out to be 0 in [8]; 0 in assay [9]; 0 in assay [10]; 0 in assay [11]; 2 in assay [12]; 0 in assay [13]. Moreover, the Aminopeptidase activity in assay [14] is 0; in assay [15], 0; in assay [16], 0; in assay [17] it was 0; in assay [18], 0; in [28], 45 and 48. In addition, the Aminopeptidase activity is 50 in assay [20]; 78 and 77 and 50 and 63 and 46 and 43 in assay [29]; 54 in assay [21]; 14 in assay [22]; 89 in assay [23]; 50 in assay [24]. The results for the Aminopeptidase activity in assay [25], in assay [26] and in [27] were 36, 68 and 78, respectively.
Regarding `[Co]` [cobalt], in assay [1], the “Inhibition … by metals” value was “inhibited”.
Take `NCC(=O)N1CCC[C@H]1C(=O)O` [Gly-Pro, Glycyl-proline] (H-Gly-Pro-OH): the Aminopeptidase activity came to 0 in assay [2]; 22 in assay [3]; 0 in assay [4]; 0 in [5]; 0 nmol in assay [5] (setting [32]); 0 in assay [6]. In addition, the Aminopeptidase activity in assay [7] is 0; in assay [30] it was 75 and 109; in assay [8], 0; in assay [9], 0; in assay [11], 1; in assay [12], 5. The Aminopeptidase activity in assay [14] was 0; in [15], 0; in [16], 1; in assay [17], 0; in [19], 105 and 90; in assay [28], 22 and 17. Further, the Aminopeptidase activity was 15 and 22 and 27 in assay [31]; 11 in [20]; 19 in [21]; 2 in assay [22]; 17 in [23]; 10 in [24]. Besides, the Aminopeptidase activity in [25] stood at 16; in assay [26], 54; in [27], 26.
As for `C[S+](C)[O-]` [DMSO, dimethyl-sulfoxide], in [1], the “Inhibition of B. gingivalis N-CBz-glycyl-glycyl-arginylpeptidase enzyme activity” value is reported as “inhibited”.
Consider `[Cd]` [cadmium], for which, in assay [1], the “Sensitivity of B. gingivalis enzyme activity to heavy metal ions” value is recorded as “sensitive” and the “Inhibition … by metals” value is listed as “inhibited”.
For mercury, in that order: “sensitive” and “inhibited”.

These data come from US4994376A, “Detection of bacteroides gingivalis” (priority 1987, dated 1991).
